Tests used:
[1] = system: MPS1; set-up: method as in PMID 23940287; settings: reported; cited from earlier work
[2] = system: orthotopic E98 GBM tumors; assay: Orthotopic E98 GBM xenograft efficacy in Abcb1a/b;Abcg2-/- mice; format: in vivo; settings: TMZ + RT given at tumor size 10^7-10^8 p/s
Protocol: Orthotopic GBM tumors were induced in Abcb1a/b; Abcg2^−/− mice by stereotactic injection of E98 cells expressing firefly luciferase (200,000 cells in 2 µL HBSS (Life Technologies) at an injection speed of 1 µL/min) at 2 mm lateral, 1 mm anterior and 3 mm ventral to the bregma. Tumor growth was monitored using bioluminescence imaging by injecting D-luciferin (150 mg/kg i.p.; Promega, Madison, WI) and subsequently imaging mice on an IVIS Spectrum Imaging System (PerkinElmer, Waltham, MA). Survival was monitored daily and the humane endpoint was defined as body weight loss exceeding 20%. Time-to-recurrence was defined as the number of days elapsed until the tumor regained its pre-treatment size. Tumors were treated with CT-guided radiotherapy (2–3.5 Gy per fraction) using an X-RAD 225Cx system (Precision X-Ray, North Branford, CT), temozolomide (10 mg/kg p.o. freshly prepared from powder in an aqueous solution containing 10% v/v ethanol), NTRC0066-0 (20, 10 or 5 mg/kg p.o. in an aqueous solution containing 10% v/v DMSO and 10% v/v Cremophor EL (Life Technologies)) or different combinations thereof, as described per experiment in the Figure legends.

| Compound | IC50s (intrinsic potency) [1] | Tumor bioluminescence signal after regression [2] |
| --- | --- | --- |
| COc1cc(N2CCC(O)CC2)ccc1Nc1nc(Nc2ccccc2S(=O)(=O)C(C)C)c2[nH]cnc2n1 [MPS1-IN-3] | micromolar range |  |
| Cn1nnc2c(C(N)=O)ncn2c1=O [TMZ, temozolomide, reference compound] |  | about 10^5 p/s |
